From patent US10130674B2, “Modified peptide that reduces pain in peripheral neuropathy” (Creative Bio-Peptides, priority 2010, dated 2018)

Columns and labels:
[1] = data not shown
[2] = data not shown; remark: listed apart in the source
[3] = target: CCR5 (Homo sapiens, UniProt P51681); details: cited from earlier work
[4] = Nerve damage neuropathic pain, DAPTA pilot study; type: in vivo, rat
[5] = system: CCR5-specific virus (HIVBaL); assay: In vitro CCR5 receptor viral infectivity assay (GHOST R5 reporter cells); type: cell-based, HIV; details: GFP reporter
Description: This virus uses CCR5 receptor binding to infect its host cell.
In Vitro CCR5 Receptor Viral Infectivity Assay
A CCR5-specific virus (HIVBaL) was added 1 hr later. CCR5 receptor viral infectivity was tested on CCR5-containing cells with a Green Fluorescent Protein (GFP) reporter that responds to viral infection.
The experiment, which was repeated 5 times in various cell systems, was performed in triplicate and bars correspond to standard error of the mean. Data were analyzed by a nonlinear fit using GraphPad Prism 5.

Sequence of CCR5 (P51681 whole entry): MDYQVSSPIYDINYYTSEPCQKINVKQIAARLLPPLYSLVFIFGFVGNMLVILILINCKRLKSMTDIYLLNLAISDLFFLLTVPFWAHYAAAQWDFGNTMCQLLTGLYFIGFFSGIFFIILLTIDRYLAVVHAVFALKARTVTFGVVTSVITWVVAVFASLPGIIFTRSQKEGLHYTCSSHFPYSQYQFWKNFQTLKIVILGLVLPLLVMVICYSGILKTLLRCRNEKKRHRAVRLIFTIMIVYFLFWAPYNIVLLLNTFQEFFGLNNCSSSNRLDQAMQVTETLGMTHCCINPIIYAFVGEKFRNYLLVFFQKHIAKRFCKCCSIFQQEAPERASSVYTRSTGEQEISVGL

| Compound | paw withdrawal latency in naïve animals [1] | paw withdrawal threshold in naïve animals [2] | affinity for R5 [3] | neuropathic pain development ([4]; pilot study, 0.01 mg/kg, not shown) | pain in the paw ipsilateral to nerve damage ([4]; rats) | block of infection by CCR5 using virus (HIVBaL) [5] |
| --- | --- | --- | --- | --- | --- | --- |
| C[C@H](O)[C@@H](N)C(=O)N[C@@H](C(=O)N[C@H](CC(N)=O)C(=O)N[C@H](Cc1ccc(O)cc1)C(=O)N[C@@H](C(=O)O)[C@H](C)O)[C@H](C)O [All D TTNYT] | did not alter | did not alter |  |  |  |  |
| D-Ala-Peptide T-amide [DAPTA] |  |  | femtomolar range | inhibited neuropathic pain development | attenuated pain | block CCR5 receptors |
